Biological target: T1, Plasminogen activator inhibitor 1 (Homo sapiens, UniProt P05121)
Experiment: Tissue plasminogen activator generation in plasmin was evaluated by measuring the ability to inhibit Plasminogen activator inhibitor-1 through fibrin plate assay

T1 sequence (P05121 whole entry): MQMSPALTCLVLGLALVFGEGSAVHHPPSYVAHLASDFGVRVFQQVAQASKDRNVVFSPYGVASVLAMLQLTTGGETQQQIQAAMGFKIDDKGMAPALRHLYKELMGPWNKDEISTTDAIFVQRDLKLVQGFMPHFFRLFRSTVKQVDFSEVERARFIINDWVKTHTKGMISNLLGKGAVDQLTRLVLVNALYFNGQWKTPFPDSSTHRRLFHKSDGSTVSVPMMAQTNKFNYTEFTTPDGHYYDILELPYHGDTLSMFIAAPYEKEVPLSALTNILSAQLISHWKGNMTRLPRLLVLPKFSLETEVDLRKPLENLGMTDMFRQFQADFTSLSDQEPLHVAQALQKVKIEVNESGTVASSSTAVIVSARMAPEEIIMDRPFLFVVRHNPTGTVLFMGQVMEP

Compound | IC50 [µM]
O=C(O)CCCCCCCOc1ccc(/C=c2\[nH]c(=O)/c(=C/c3ccc(NC(=O)c4cccs4)cc3)[nH]c2=O)cc1 | 0.26

Biological target: T1, Plasminogen activator inhibitor 1
Experiment: Tissue plasminogen activator generation in plasmin was evaluated by measuring the ability to inhibit Plasminogen activator inhibitor-1 through complex assay

Compound | IC50 [µM]
O=C(O)CCCCCCCOc1ccc(/C=c2\[nH]c(=O)/c(=C/c3ccc(NC(=O)c4cccs4)cc3)[nH]c2=O)cc1 | 0.51

Biological target: T1, Plasminogen activator inhibitor 1
Experiment: Inhibitory activity of compound against Plasminogen activator inhibitor-1

Compound | IC50 [µM]
CN(C)CCSc1ccc(/C=c2\[nH]c(=O)/c(=C/c3ccc(NC(=O)c4ccccc4)cc3)[nH]c2=O)s1 | 6.1
COC(=O)CCCCCCCOc1ccc(/C=c2\[nH]c(=O)/c(=C/c3ccc(NC(=O)c4cccs4)cc3)[nH]c2=O)cc1 | 1.93
O=C(O)CCCCOc1ccc(/C=c2\[nH]c(=O)/c(=C/c3ccc(NC(=O)c4cccs4)cc3)[nH]c2=O)cc1 | 1.75
O=C(O)c1ccc(/C=c2\[nH]c(=O)/c(=C/c3ccccc3)[nH]c2=O)cc1 | > 25
Cc1ccc(/C=c2\[nH]c(=O)/c(=C/c3ccc(SCCN(C)C)s3)[nH]c2=O)cc1 | 12.4
CN(C)CCSc1ccc(/C=c2\[nH]c(=O)/c(=C/c3ccc(N(C)C)cc3)[nH]c2=O)s1 | > 25
CCN(CC)CCSc1ccc(/C=c2\[nH]c(=O)/c(=C/c3ccccc3)[nH]c2=O)s1 | > 25
CN(C)CCSc1ccc(/C=c2\[nH]c(=O)/c(=C/c3ccccc3)[nH]c2=O)s1 | 3.5
O=C(O)CCCOc1ccc(/C=c2\[nH]c(=O)/c(=C/c3ccccc3)[nH]c2=O)cc1 | 20
COc1ccc(/C=c2\[nH]c(=O)/c(=C/c3ccc(SCCN(C)C)s3)[nH]c2=O)cc1 | 10.9
O=C(O)COc1ccc(/C=c2\[nH]c(=O)/c(=C/c3ccccc3)[nH]c2=O)cc1 | > 25
O=C(O)CCCCCCC(=O)Nc1ccc(/C=c2\[nH]c(=O)/c(=C/c3ccc(NC(=O)c4cccs4)cc3)[nH]c2=O)cc1 | 0.52
CN(C)CCSc1ccc(/C=c2\[nH]c(=O)/c(=C/c3ccc(Br)cc3)[nH]c2=O)s1 | 13.1
O=C(O)CCCCCCCCC(=O)Nc1ccc(/C=c2\[nH]c(=O)/c(=C/c3ccc(NC(=O)c4cccs4)cc3)[nH]c2=O)cc1 | 0.39
CN(C)CC[S+]([O-])c1ccc(/C=c2\[nH]c(=O)/c(=C/c3ccccc3)[nH]c2=O)s1 (stereo unspecified) | > 25
CN(C)CCSc1ccc(/C=c2\[nH]c(=O)/c(=C/c3ccc(C#N)cc3)[nH]c2=O)s1 | > 25
CN(C)CCSc1ccc(/C=c2\[nH]c(=O)/c(=C/c3ccccc3Br)[nH]c2=O)s1 | > 25
CN(C)CCSc1ccc(/C=c2\[nH]c(=O)/c(=C/c3cccc(Cl)c3)[nH]c2=O)s1 | > 25
O=C(O)CCCCOc1ccc(/C=c2\[nH]c(=O)/c(=C/c3ccccc3)[nH]c2=O)cc1 | 15
O=C(O)CCCCCCCOc1ccc(/C=c2\[nH]c(=O)/c(=C/c3ccc(NC(=O)c4cccs4)cc3)[nH]c2=O)cc1 | 0.2
CN(C)CCOc1ccc(/C=c2\[nH]c(=O)/c(=C/c3ccccc3)[nH]c2=O)s1 | > 25
CN(C)CCSc1ccc(/C=c2\[nH]c(=O)/c(=C/c3ccc(NC(=O)c4cccs4)cc3)[nH]c2=O)s1 | 3.1
COC(=O)c1ccc(/C=c2\[nH]c(=O)/c(=C/c3ccc(SCCN(C)C)s3)[nH]c2=O)cc1 | 17.7
COC(=O)CCCCCCC(=O)Nc1ccc(/C=c2\[nH]c(=O)/c(=C/c3ccc(NC(=O)c4cccs4)cc3)[nH]c2=O)cc1 | 4.77

From ChEMBL document CHEMBL1133974, “Synthesis and in vitro evaluation of a series of diketopiperazine inhibitors of plasminogen activator inhibitor-1” (Bioorg Med Chem Lett, 2001)
